Data: patent publication US12533348B2, “Ferroportin-inhibitors for the use in the treatment of transfusion-dependent beta-thalassemia (TDT)” (Vifor (International) AG, priority 2019, dated 2026)
Where “and” joins values, the source holds several entries; their conditions need not be identical. Equal entries are not always repeated.

Legend:
[1] = Combination study DFX/Fpn127: clinical observations, mortality and body weight; format: in vivo, mouse; details: for BW: th3/+ mice, mean
Procedure: One day after switching to lid a blood sample was taken by tail vein incision to determine the baseline Hb levels. Hb was measured using a HaemoCue® device. Hb was also measured on days 8, 15, and 22 in the morning before dosing. The animals were dosed p.o. D with 30 mg/kg DFX in 30% Kolliphor, 120 mg/kg Fpn127 in 0.5% C, or both for a total of 17 doses during the 23 days of study. 30% Kolliphor and 0.5% C were dosed as vehicles. The dose of DFX was administered at the beginning of the dark cycle (active phase) at 9:00 followed by 3 h of access to lid. Then, mice were dosed with Fpn127 (or 0.5% C) and were given access to sd for a 6 h period before switched back to lid. On the dosing was paused and mi had access to lid ad libitum.
Animals and their cages were checked daily by the experimenter during the study on working days. During the experimental phase, animals were weighted minimum once per week and scored according to their clinical symptoms: BW, general behavior and activity, appearance of hair coat, eyes, and nose. Clinical observations were recorded when present on separate score sheets.
BW was recorded once before the start of the experimental phase on day −1. During the experimental phase, individual BW were recorded 1 to 2 times per week to calculate the dosing volume and to monitor weight loss.

[2] = tested on: Hbb^th3/+ mouse model of β-thalassemia intermedia; experiment: Combination study: complete blood counts (ProCyte Dx); format: in vivo
Procedure: Complete blood counts were performed on fresh EDTA-blood on an automated blood cell analyzer (ProCyte Dx®, IDEXX Laboratories) in-house.

[3] = tested on: Hbb^th3/+ mouse model of β-thalassemia intermedia; experiment: Combination study: erythroid differentiation stages in spleen by flow cytometry (Ter119/CD44/CD71); format: in vivo; details: percent of parent Ter119+ spleen cells; female th3/+ mice; DFX 30 mg/kg QD, Fpn127 120 mg/kg QD p.o.; end of study; mean
Excerpt: Distinct stages of erythroid cell differentiation in spleens of female mice were identified by flow cytometry (CANTOII cytometer, BD Biosciences) using PE-conjugated rat anti-mouse CD71 (transferrin receptor-1, eBioscience, Cat. 12-0711), APC-conjugated rat anti-mouse Ter119 (erythroid lineage marker, eBioscience, Cat. 17-5921) and APC-Cy7-conjugated rat anti-mouse CD44 (adhesion molecule that progressively decreases on the surface of developing erythroid cells, BioLegend. Cat. 103028) antibodies. Data were analyzed using FlowJo® software (FlowJo. LLC, version 10.1) Serum Parameters

[4] = Combination study: plasma concentrations of Fpn127 and DFX (LC-MS/MS); format: in vivo, mouse
Procedure: On day 23 (study end) 1 hour after dosing blood was collected by retro-orbital bleeding from pre-terminally anesthetized mice into BD Microtainer Tubes (Cat. 365967 and 365975) for determination of serum iron, transferrin, erythropoietin and compound exposure. Anesthetized animals were subsequently euthanized by cervical dislocation.
[formula] Serum EPO was measured using a mouse-specific DuoSet ELISA according to the manufacturer's instructions (R&D Systems, Cat. DY959). Plasma concentrations of Fpn127 and DFX were measured at GVK Biosciences, Hyderabad, IN. Flow Cytometric Analysis of Intracellular ROS, Mitochondria, and PS Exposure
Plasma was collected 1 hour after dosing of DFX on day 23 for determination of compound concentration by LC-MS/MS. Plasma exposure of DFX was similar in animals dosed with DFX alone or in combination with Fpn127 (FIG. 11, Table 12). […] As expected, plasma levels of Fpn127 were low as plasma was sampled approximately 20 h after the last dose of Fpn127.

[5] = tested on: Hbb^th3/+ mouse model of β-thalassemia intermedia; experiment: Combination study: flow cytometric analysis of intracellular ROS, mitochondria and PS exposure in mature RBC; format: in vivo; details: th3/+ mice, all animals; mature RBCs in whole blood at end of study (pre-terminally d22)
Procedure: In peripheral blood taken on day 22 by tail vein incision, ROS were detected with the indicator chloromethyl-2′,7′-dichlorodihydrofluorescein diacetate (CM-H2DCFDA, Invitrogen), the presence of mitochondria was detected with MitoTracker Deep Red FM (Invitrogen), and PS exposure was detected using the Annexin V Apoptosis Detection Kit (Invitrogen) in mature RBC labelled with Ter119 and CD71 antibodies.
For all analysis, cells were analyzed on a CANTOII cytometer (BD Biosciences) and data were analyzed using FlowJo® software (FlowJo, LLC, version 10.2).

[6] = tested on: Hbb^th3/+ mouse model of β-thalassemia intermedia; experiment: Combination study: organ weights and tissue iron (ICP-OES) in liver, spleen, kidney; details: for relative spleen weight: percent of body weight; for relative spleen weight / kidney Fe conc. / liver Fe conc. / spleen Fe conc.: th3/+ mice, DFX 30 mg/kg QD, Fpn127 120 mg/kg QD p.o., end of study (day 23), mean
Procedure: The aim of this study was to test whether the concurrent use of the iron chelator DFX administered once daily (QD) alone at 30 mg/kg or in combination with Fpn127 administered QD at 120 mg/kg for 3 weeks is causing any therapeutic interactions in a mouse model of β-thalassemia intermedia (Hbb^th3/+; B6; 129P—b1tm1Unc-b2tm1Unc/J, Jackson Laboratories, Stock Number: 002683).
Animals were euthanized 1 h after the last dose of DFX on study day 23 (dosing day 17).
On the final study day (day 23), spleen, liver, and kidneys were collected and snap frozen in liquid nitrogen for further analysis, as outlined below. Wet weight of spleen, liver, and kidneys were recorded.
Content of total Fe was determined in pieces of spleens, livers, and kidneys by ICP-OES in the Analytical Development group of Vifor (International) Ltd., St. Gallen.
Individual wet weights of organs were recorded. Individual values of total Fe were measured in livers, spleens, and kidneys. Individual values of total Fe content and concentration were calculated. Mean±SD of total Fe concentration and content in livers, spleens, and kidneys was calculated for each group.

[7] = th3/+ mice, DFX 30 mg/kg QD, Fpn127 120 mg/kg QD p.o., whole blood day 23, all animals, mean

O=C(O)c1ccc(-n2nc(-c3ccccc3O)nc2-c2ccccc2O)cc1 [DFX, deferasirox, reference compound]
tolerability / clinical symptoms ([1]; Hbb^th3/+ mice, DFX 30 mg/kg QD, Fpn127 120 mg/kg QD p.o., 17 doses in 23 days): generally well tolerated | BW by the end of the study vs vehicle treated Hbb^th3/+ mice ([1]; males): slightly but significantly lower BW | BW ([1]; DFX 30 mg/kg QD, Fpn127 120 mg/kg QD p.o., day 1, all animals): 21.5 g | BW ([1]; DFX 30 mg/kg QD, Fpn127 120 mg/kg QD p.o., day 1, females): 19.2 ± 1.3 g and 19.2 g | BW ([1]; DFX 30 mg/kg QD, Fpn127 120 mg/kg QD p.o., day 1, males): 23.7 ± 1.3 g and 23.7 g | BW ([1]; DFX 30 mg/kg QD, Fpn127 120 mg/kg QD p.o., day 3, all animals): 23.2 g | BW ([1]; DFX 30 mg/kg QD, Fpn127 120 mg/kg QD p.o., day 3, females): 20.9 g | BW ([1]; DFX 30 mg/kg QD, Fpn127 120 mg/kg QD p.o., day 3, males): 25.6 g | BW ([1]; DFX 30 mg/kg QD, Fpn127 120 mg/kg QD p.o., day 7, all animals): 23.2 g | BW ([1]; DFX 30 mg/kg QD, Fpn127 120 mg/kg QD p.o., day 7, females): 21.0 g | BW ([1]; DFX 30 mg/kg QD, Fpn127 120 mg/kg QD p.o., day 7, males): 25.4 g | BW ([1]; DFX 30 mg/kg QD, Fpn127 120 mg/kg QD p.o., day 10, all animals): 22.9 g | BW ([1]; DFX 30 mg/kg QD, Fpn127 120 mg/kg QD p.o., day 10, females): 20.6 g | BW ([1]; DFX 30 mg/kg QD, Fpn127 120 mg/kg QD p.o., day 10, males): 25.2 g | BW ([1]; DFX 30 mg/kg QD, Fpn127 120 mg/kg QD p.o., day 14, all animals): 23.0 g | BW ([1]; DFX 30 mg/kg QD, Fpn127 120 mg/kg QD p.o., day 14, females): 20.7 g | BW ([1]; DFX 30 mg/kg QD, Fpn127 120 mg/kg QD p.o., day 14, males): 25.2 g | BW ([1]; DFX 30 mg/kg QD, Fpn127 120 mg/kg QD p.o., day 17, all animals): 22.8 g | BW ([1]; DFX 30 mg/kg QD, Fpn127 120 mg/kg QD p.o., day 17, females): 20.4 g | BW ([1]; DFX 30 mg/kg QD, Fpn127 120 mg/kg QD p.o., day 17, males): 25.2 g | BW ([1]; DFX 30 mg/kg QD, Fpn127 120 mg/kg QD p.o., day 22, all animals): 23.3 g | BW ([1]; DFX 30 mg/kg QD, Fpn127 120 mg/kg QD p.o., day 22, females): 20.8 g | BW ([1]; DFX 30 mg/kg QD, Fpn127 120 mg/kg QD p.o., day 22, males): 25.9 g | neutrophil counts ([2]; Hbb^th3/+ mice, day 23, potential inflammatory response): significantly increased | HCT [2, 7]: 27.4% | Leukocytes [2, 7]: 8.9 10E3/μL | Lymphocytes [2, 7]: 7.4 10E3/μL | MCH [2, 7]: 10.4 pg | MCHC [2, 7]: 25.4 g/dL | MCV [2, 7]: 41.1 fL | Neutrophils [2, 7]: 1.2 10E3/μL | RBC [2, 7]: 7.7 10E6/μL | RDW [2, 7]: 47.0% | RET [2, 7]: 1760 10E3/μL | Ret-He [2, 7]: 12.8 pg | basophilic erythroblasts, frequency of parent [3]: 8.21% | mature erythrocytes, frequency of parent [3]: 32.35% | orthochromatic erythroblasts, frequency of parent [3]: 23.48% | polychromatic erythroblasts, frequency of parent [3]: 23.90% | pro-erythroblasts, frequency of parent [3]: 3.29% | plasma exposure of DFX, alone vs in combination with Fpn127 ([4]; 1 hour after dosing of DFX on day 23 (FIG. 11)): similar | concentration at 1 h ([4]; both sexes, Hbb^th3/+ (B6; 129P—b1tm1Unc-b2tm1Unc/J), mouse, oral, 30 mg/kg, th3/+ mice, all animals, plasma collected 1 hour after dosing of DFX on day 23, LC-MS/MS, read-out: Plasma exposure of DFX at the end of the study (mean)): 15400 ng/mL | % Annex in V-positive RBCs (mean) [5]: 0.47% | % Mito Tracker-positive RBCs (mean) [5]: 0.56% | % ROS-positive RBCs (mean) [5]: 41.56% | effect on relative spleen weight in th3/+ animals ([6]; end of study d23 (FIG. 4)): no effect | relative spleen weight ([6]; all animals): 1.98±0.26% and 1.98% | relative spleen weight ([6]; females): 2.17% | relative spleen weight ([6]; males): 1.79% | kidney Fe conc. ([6]; all animals): 125.1 ± 22.2 µg/g and 125.1 µg/g | liver Fe conc. ([6]; all animals): 196.3 ± 62.5 µg/g and 196.3 µg/g | spleen Fe conc. ([6]; all animals): 1553.0 ± 144.7 µg/g and 1553.0 µg/g | kidney Fe conc. ([6]; females): 126.6 µg/g | liver Fe conc. ([6]; females): 241.2 µg/g | spleen Fe conc. ([6]; females): 1511.0 µg/g | kidney Fe conc. ([6]; males): 123.6 µg/g | liver Fe conc. ([6]; males): 151.5 µg/g | spleen Fe conc. ([6]; males): 1602.0 µg/g
